# According to ChEMBL document CHEMBL1135290, “Synthesis of sub-micromolar inhibitors of MraY by exploring the region originally occupied by the diazepanone ring in the liposidomycin structure” (Bioorg Med Chem Lett, 2002):
# pIC50: −log10 of the molar value.
# Legend:
# Enterococcus faecium = experiment: Tested in vitro for antibacterial activity against Enterococcus faecium using micro-broth dilution method; format: functional
# Streptococcus pyogenes = experiment: Tested in vitro for antibacterial activity against Streptococcus pyogenes using micro-broth dilution method; format: functional
# [1] = Inhibitory activity against Translocase I
# Escherichia coli = experiment: Tested in vitro for antibacterial activity against Escherichia coli using micro-broth dilution method; format: functional
# Staphylococcus aureus = experiment: Tested in vitro for antibacterial activity against Staphylococcus aureus using micro-broth dilution method; format: functional
SMILES,MIC (Enterococcus faecium) [µg/mL],MIC (Streptococcus pyogenes) [µg/mL],pIC50 [1],MIC (Escherichia coli) [µg/mL],MIC (Staphylococcus aureus) [µg/mL]
CCCCCCCCNC[C@H](O[C@@H]1O[C@H](CN)[C@@H](O)[C@H]1O)[C@@H]1C[C@@H](O)[C@H](n2ccc(=O)[nH]c2=O)O1.O=C(O)C(F)(F)F,80,> 80,6.09,> 80,> 80
NC[C@H]1O[C@@H](O[C@@H](CNC(=O)c2ccccc2)[C@@H]2C[C@@H](O)[C@H](n3ccc(=O)[nH]c3=O)O2)[C@H](O)[C@@H]1O,,,4.85,,
CN(Cc1ccccc1)C[C@H](O[C@@H]1O[C@H](CN)[C@@H](O)[C@H]1O)[C@@H]1C[C@@H](O)[C@H](n2ccc(=O)[nH]c2=O)O1,,,5.16,,
COC(=O)C1CCN(C[C@H](O[C@@H]2O[C@H](CN)[C@@H](O)[C@H]2O)[C@@H]2C[C@@H](O)[C@H](n3ccc(=O)[nH]c3=O)O2)CC1,,,5.36,,
CCN(CC)CCN1CCN(C[C@H](O[C@@H]2O[C@H](CN)[C@@H](O)[C@H]2O)[C@@H]2C[C@@H](O)[C@H](n3ccc(=O)[nH]c3=O)O2)CC1,,,5.74,,
CCCCCNC[C@H](O[C@@H]1O[C@H](CN)[C@@H](O)[C@H]1O)[C@@H]1C[C@@H](O)[C@H](n2ccc(=O)[nH]c2=O)O1.O=C(O)C(F)(F)F,> 80,> 80,6.05,> 80,> 80
NC[C@H]1O[C@@H](O[C@@H](CNCCc2c[nH]c3ccccc23)[C@@H]2C[C@@H](O)[C@H](n3ccc(=O)[nH]c3=O)O2)[C@H](O)[C@@H]1O,,,5.54,,
NC[C@H]1O[C@@H](O[C@@H](CNCCc2ccncc2)[C@@H]2C[C@@H](O)[C@H](n3ccc(=O)[nH]c3=O)O2)[C@H](O)[C@@H]1O,,,5.34,,
COc1ccc(CN(C)C[C@H](O[C@@H]2O[C@H](CN)[C@@H](O)[C@H]2O)[C@@H]2C[C@@H](O)[C@H](n3ccc(=O)[nH]c3=O)O2)cc1,,,5.85,,
CC(=O)N[C@H]1[C@@H](O[C@@H]2O[C@H](CC(O)[C@H]3O[C@@H](n4ccc(=O)[nH]c4=O)[C@H](O)[C@@H]3O)[C@H](O)[C@H](O)[C@H]2NC(=O)/C=C/CC(C)C)O[C@H](CO)[C@@H](N)[C@@H]1O (some centres not stated) [TUNICAMYCIN],,,6.32,,

# Continued by rising pIC50 [1], values first:
MIC (Enterococcus faecium) [µg/mL],MIC (Streptococcus pyogenes) [µg/mL],pIC50 [1],MIC (Escherichia coli) [µg/mL],MIC (Staphylococcus aureus) [µg/mL],SMILES
20,2.5,6.15,2.5,5,CCCCCCCCCCCCNC[C@H](O[C@@H]1O[C@H](CN)[C@@H](O)[C@H]1O)[C@@H]1C[C@@H](O)[C@H](n2ccc(=O)[nH]c2=O)O1.O=C(O)C(F)(F)F
10,2.5,6.23,2.5,2.5,CCCCCCCCCCCCCCNC[C@H](O[C@@H]1O[C@H](CN)[C@@H](O)[C@H]1O)[C@@H]1C[C@@H](O)[C@H](n2ccc(=O)[nH]c2=O)O1.O=C(O)C(F)(F)F
,,6.36,,,NC[C@H]1O[C@@H](O[C@@H](CNC(=O)c2cccc(Oc3ccccc3)c2)[C@@H]2C[C@@H](O)[C@H](n3ccc(=O)[nH]c3=O)O2)[C@H](O)[C@@H]1O
,,6.36,,,NC[C@H]1O[C@@H](O[C@@H](CNC(=O)c2ccc(Br)cc2)[C@@H]2C[C@@H](O)[C@H](n3ccc(=O)[nH]c3=O)O2)[C@H](O)[C@@H]1O
80,20,6.48,40,40,CCCCCCCCCCNC[C@H](O[C@@H]1O[C@H](CN)[C@@H](O)[C@H]1O)[C@@H]1C[C@@H](O)[C@H](n2ccc(=O)[nH]c2=O)O1.O=C(O)C(F)(F)F
,,6.49,,,NC[C@H]1O[C@@H](O[C@@H](CNC(=O)c2ccc(OCc3ccccc3)cc2)[C@@H]2C[C@@H](O)[C@H](n3ccc(=O)[nH]c3=O)O2)[C@H](O)[C@@H]1O
,,6.74,,,NC[C@H]1O[C@@H](O[C@@H](CNc2ccc(C3CCCCC3)cc2)[C@@H]2C[C@@H](O)[C@H](n3ccc(=O)[nH]c3=O)O2)[C@H](O)[C@@H]1O
